Counter-ions that a name gives are not always drawn. Like-named read-outs stand apart in the source and are kept apart here.
Assays:
[1] = system: 52° C. Water Tail Flick Test; assay: 52° C. Water Tail Flick Test, intrathecal administration; format: in vivo, rat; conditions: rats
Method: Rats were implanted with chronically indwelling intrathecal catheters (PE-10; 7.5 cm) allowing for the delivery of compounds to the lumbar spinal cord. As a positive control, rats were treated with various doses of morphine (3, 10 and 30 μg).
Rats were implanted with chronically indwelling intrathecal catheters (PE-10; 7.5 cm) allowing for the delivery of compounds to the lumbar spinal cord.
Rats were implanted with chronically indwelling intrathecal catheters (PE-10; 7.5 cm) allowing for the delivery of compounds to the lumbar spinal cord. In order to rule out the possibility that the lack of antinociception produced by NPFF was due to the degradation of the peptide we administered 1DME (a stable NPFF analog).

Barrel Rotations [2] = conditions: 60 μg, reported by Panula et al. 1996; cited from earlier work
Barrel Rotations [3] = assay: Barrel rotations after ICV administration of NPFF; format: in vivo, rat; conditions: naive rats
Description: Given that this is the only mention in the literature with respect to NPFF and barrel-rotation, we attempted to replicate this effect using naive rats implanted with ICV cannula.

EP2 receptor = target: T1, EP2 receptor (Homo sapiens, UniProt P43116); assay: cAMP response to PGE2 in HEK-T cells (EP2 co-transfection); format: cell-based; conditions: doses as high 10 μM
T1 construct: expressed in transfected cells; host or cells: HEK-T
Description: (§1) An assay was established for measuring cAMP in transiently transfected cells that takes advantage of the fact that most cells that are transfected with one gene, can be simultaneously transfected with other genes. Thus, the NPFF1 and NPFF2 receptors were transfected along with a Gs-coupled receptor (EP2) at a ratio of 5:1.

NPFF1 = NPFF1 (Homo sapiens, UniProt Q9GZQ6); assay: Receptor Selection and Amplification Technology (R-SAT) functional assay, NPFF1; format: cell-based; set-up: expressed in transfected cells; host or cells: NIH3T3; conditions: for EC50: NA = No activity detectable at the highest dose tested (20 μM), read-out: NPFF1 pEC50 (converted)
Method: (§2) Briefly, NIH3T3 cells were grown in 96 well tissue culture plates to 70-80% confluence. Cells were transfected for 16-20 h h with plasmid DNAs using Polyfect (Qiagen Inc.) as per manufacturer's protocols. R-SAT's were generally performed with 40 ng/well of receptor and 20 ng/well of β-galactosidase plasmid DNA. All receptor and G-protein constructs used were in the pSI-derived mammalian expression vector (Promega Inc) as described previously. […] For large-scale transfections, cells were transfected for 16-20 h, then trypsinized and frozen in DMSO. Frozen cells were later thawed, plated at ˜20,000 cells per well of a 96 half-area well plate that contained drug. With both methods, cells were then grown in a humidified atmosphere with 5% ambient CO2 for five days. Media was then removed from the plates and marker gene activity was measured by the addition of the β-galactosidase substrate o-nitrophenyl β-D-galactopyranoside (ONPG, in PBS with 0.5% NP-40). The resulting colorimetric reaction was measured in a spectrophotometric plate reader (Titertek Inc.) at 420 nm. All data were analyzed using the computer program XLFit (IDBSm).
(§3) R-SAT assay was conducted as set forth in […]

NPFF2 = target: T2, NPFF2 (Homo sapiens, UniProt Q9Y5X5); assay: Receptor Selection and Amplification Technology (R-SAT) functional assay, NPFF2; format: cell-based
T2 construct: expressed in transfected cells; host or cells: NIH3T3
Method: as §2, §3

NPFF2b = target: T3, NPFF2b (Homo sapiens, UniProt Q9Y5X5); assay: cAMP assay in transiently transfected HEK-T cells, NPFF2; format: cell-based; conditions: HEK-T cell, read-out: NPFF2b % Efficacy Mean
T3 construct: expressed in transfected cells; host or cells: HEK-T
Method: as §1
This set up was routinely used for the transfection of HEK-T cells with NPFF1 and NPFF2 receptors. […] Cells were incubated for 15 minutes at 37° C. At the end of incubation, cells were lysed and the remainder of the assay performed as per DiscoveRx protocol.
Cells were incubated for another 15 minutes at 37° C. following which the cells were lysed and processed as per kit protocol.

rats = assay: Observed behaviors / side effects after systemic administration; format: in vivo, rat; conditions: rats, i.p.
Method: These behaviors typically precede “barrel-rolling” seizures.
These effects persisted between 15 and 20 minutes. These effects were not observed in rats that received doses less than 10 mg/kg.
These effects persisted between 15 and 20 minutes and were shown by both sham-operated and SNL rats. These effects were not observed in rats that received doses less than 10 mg/kg. [drawing 22]
However, these effects were more robust and of longer duration (60-90 min).
These effects persisted between 60 and 90 minutes and were shown by both sham-operated and SNL rats. These effects were not observed in rats that received doses less than 10 mg/kg. [drawing 23]
A model of neuropathic pain was created in rats by tight ligation of the L5 and L6 spinal nerves. […] Rats were then treated with various doses of dPQR (3, 10 and 30 mg/kg, i.p.) and paw withdrawal thresholds were tested across a period of 3 hours.
A model of neuropathic pain was created in rats by tight ligation of the L5 and L6 spinal nerves. […] Rats were then treated with various doses of Compound 3099 (1, 3 and 10 mg/kg, i.p.) and paw withdrawal thresholds were tested across a period of 3 hours.
In an attempt to increase the efficacy of Compound 3099 in the SNL model, we administered a dose of 30 mg/kg (i.p.) to SNL rats. […] Further, these behaviors were also transient, such that, by the end of the testing period these effects appeared to have resolved.

[4] = R-SAT, Table 1, Efficacy is relative to endogenous ligand, read-out: NPFF1 % Efficacy
[5] = R-SAT, Table 1, Efficacy is relative to endogenous ligand, read-out: NPFF2 % Efficacy
[6] = R-SAT, Table 1, NA = No activity detectable at the highest dose tested (20 μM), read-out: NPFF2 pEC50 (converted)

T2 sequence (Q9Y5X5 103-522): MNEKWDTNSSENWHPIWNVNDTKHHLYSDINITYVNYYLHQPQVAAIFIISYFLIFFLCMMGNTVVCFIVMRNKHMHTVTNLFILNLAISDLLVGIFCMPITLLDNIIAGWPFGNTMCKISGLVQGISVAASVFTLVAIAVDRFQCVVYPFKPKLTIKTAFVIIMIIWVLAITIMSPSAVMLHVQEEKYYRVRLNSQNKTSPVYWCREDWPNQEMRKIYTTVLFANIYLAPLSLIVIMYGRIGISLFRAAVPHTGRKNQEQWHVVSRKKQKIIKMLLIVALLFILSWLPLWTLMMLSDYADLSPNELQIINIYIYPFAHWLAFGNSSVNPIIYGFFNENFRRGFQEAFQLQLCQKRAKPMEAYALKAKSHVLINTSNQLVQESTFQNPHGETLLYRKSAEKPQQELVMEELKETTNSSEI
Chain of NPFF1 (Q9GZQ6 whole entry, species assumed): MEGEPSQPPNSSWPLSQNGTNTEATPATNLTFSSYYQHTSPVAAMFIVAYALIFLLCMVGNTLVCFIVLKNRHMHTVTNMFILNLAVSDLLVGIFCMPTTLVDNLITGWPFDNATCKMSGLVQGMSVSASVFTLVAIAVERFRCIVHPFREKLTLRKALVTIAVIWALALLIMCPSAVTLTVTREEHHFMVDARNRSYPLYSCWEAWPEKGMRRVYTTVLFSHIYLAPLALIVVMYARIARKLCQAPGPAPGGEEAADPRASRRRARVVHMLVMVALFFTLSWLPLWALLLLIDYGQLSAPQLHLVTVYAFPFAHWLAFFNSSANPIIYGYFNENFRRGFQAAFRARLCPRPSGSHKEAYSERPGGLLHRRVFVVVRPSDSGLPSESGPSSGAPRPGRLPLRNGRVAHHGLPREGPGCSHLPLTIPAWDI
T3 sequence (Q9Y5X5 103-522 limits assumed): as the sequence (Q9Y5X5 103-522) above
T1 sequence (P43116 whole entry): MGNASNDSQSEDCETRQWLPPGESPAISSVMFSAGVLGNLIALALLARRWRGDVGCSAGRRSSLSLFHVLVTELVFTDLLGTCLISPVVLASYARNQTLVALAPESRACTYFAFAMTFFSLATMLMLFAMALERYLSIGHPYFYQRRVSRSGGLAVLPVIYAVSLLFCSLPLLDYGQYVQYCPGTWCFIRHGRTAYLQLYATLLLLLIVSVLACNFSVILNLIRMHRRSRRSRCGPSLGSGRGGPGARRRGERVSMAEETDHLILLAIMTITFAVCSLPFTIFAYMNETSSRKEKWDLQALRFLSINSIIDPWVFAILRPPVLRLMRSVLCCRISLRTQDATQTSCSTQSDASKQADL

Row | Structure (SMILES) | Emax (NPFF1; [4]) | Emax (NPFF2; [5]) | EC50 (NPFF2; [6]) | EC50 (NPFF1; R-SAT, Table 1) | also measured
1 | CN1CC[C@]23c4c5ccc(O)c4O[C@H]2[C@@H](O)C=C[C@H]3[C@H]1C5 [Morphine, morphine] | – | – | – | – | A50, antinociception ([1]; 95% CI): 9.8 µg; antinociception in 52° C. water tail flick test ([1]; morphine 3, 10, 30 μg, NPFF 100 μg, 1045 11.6 or 115.5 μg, 1DME 5.6, 55.6 or 556.0 μg): produced dose-related antinociception
2 | CC(C)C[C@H](NC(=O)[C@@H](N)Cc1ccccc1)C(=O)N[C@@H](Cc1ccccc1)C(=O)N[C@@H](CCC(N)=O)C(=O)N1CCC[C@H]1C(=O)N[C@@H](CCC(N)=O)C(=O)N[C@@H](CCCN=C(N)N)C(=O)N[C@@H](Cc1ccccc1)C(N)=O [NPFF, Neuropeptide FF] | – | – | – | – | barrel-rotation after ICV administration (Barrel Rotations [2]): elicits barrel-rotation; rats demonstrating barrel rolling seizures (Barrel Rotations [3]; 60 μg): 0 out of 3; rats demonstrating barrel rolling seizures (Barrel Rotations [3]; 120 μg): 1 out of 2; rats demonstrating barrel rolling seizures (Barrel Rotations [3]; 150 μg): 3 out of 5
3 | CCCCC[C@H](O)/C=C/[C@H]1[C@H](O)CC(=O)[C@@H]1C/C=C\CCCC(=O)O [PGE2] | – | – | – | – | response in un-transfected HEK-T cells (EP2 receptor): no response
4 | CC(=NNC(=N)N)c1ccc(Cl)c(Cl)c1 [Compound 3012, 1-[1-(3,4-Dichlorophenyl)ethylideneamino]guanidine Hydrochloride] | 0% | 63% | 0.251 µM | – | –
5 | CCOc1ccc(C=NNC(=N)N)cc1 [Compound 4005, 1-(4-Ethoxybenzylideneamino)guanidine Hydrochloride] | 89% | 49% | 5.01 µM | 10 µM | –
6 | CN(CCO)c1ccc(C=NNC(=N)N)cc1 [Compound 3041, 1-{4-[Methyl-(2-hydroxyethyl)amino]benzylideneamino}guanidine Hydrochloride] | 30% | 53% | 10 µM | 10 µM | –
7 | Cl.N=C(N)NN=Cc1ccc(Cl)c(Cl)c1 [Compound 1045.HCl, 1-(3,4-Dichlorobenzylideneamino)guanidine Hydrochloride] | – | – | – | – | Emax (NPFF2b): 34%; Emax (NPFF1; R-SAT data, Table 2, multiple entries = different batches, read-out: NPFF1 % Efficacy Mean): 17.7%; EC50 (NPFF2; NPFF2b pEC50 Mean, R-SAT data, Table 2, multiple entries = different batches): 1 µM; Emax (NPFF2; R-SAT data, Table 2, multiple entries = different batches, read-out: NPFF2b % Efficacy Mean): 67.6%; side effects observed (rats; 10 mg/kg): demonstrated writhing behavior and appeared lethargic; side effects at doses less than 10 mg/kg (rats): not observed
8 | COc1ccc(C=NNC(=N)N)cc1F [Compound 2009, 1-(3-Fluoro-4-methoxybenzylideneamino)guanidine Hydrochloride] | 9% | 54% | 7.94 µM | – | –
9 | COc1ccc(OC)c(C=NNC(=N)N)c1 [Compound 3005, 1-(2,5-Dimethoxybenzylideneamino)guanidine Hydrochloride] | 3% | 59% | 7.94 µM | – | –
10 | N=C(N)NN=Cc1ccc2c(c1)Cc1ccccc1-2 [Compound 2028, Hydrochloride] | 37% | 68% | – | 1.58 µM | EC50 (NPFF2; NPFF2 pEC50, R-SAT, Table 1, NA = No activity detectable at the highest dose tested (20 μM)): 1.26 µM

Source: US20050136444A1 (priority 2003, published 2005)
